From PubChem BioAssay (NCI)
“And” between values parts separate entries of the source, which are not always exact repeats. Equal values may be shown once.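 Where inhibition never reached the appropriate level, the endpoint shown equals the highest concentration tested. Otherwise, values were interpolated linearly from a five-concentration, 48-hour dose response in 96-well plates. GI50: concentration for 50% inhibition of growth. TGI marks complete inhibition of growth.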

Assays:
Experiment in all cases: NCI anticancer screen, dose series, 48 h
[1] = tested on: A498 renal
[2] = tested on: IGROV1 ovarian
[3] = tested on: SNB-75 CNS
[4] = tested on: RPMI-8226 leukemia
[5] = tested on: SK-MEL-5 melanoma
[6] = tested on: SK-MEL-28 melanoma
[7] = tested on: DU-145 prostate
[8] = tested on: 786-0 renal
[9] = tested on: ACHN renal
[10] = tested on: OVCAR-3 ovarian

| SMILES | GI50 [1] | TGI [1] | GI50 [2] | TGI [2] | GI50 [3] | TGI [3] | GI50 [4] | TGI [4] | GI50 [5] | TGI [5] | GI50 [6] | TGI [6] | GI50 [7] | TGI [7] | GI50 [8] | TGI [8] | GI50 [9] | TGI [9] | GI50 [10] | TGI [10] |
| --- | --- | --- | --- | --- | --- | --- | --- | --- | --- | --- | --- | --- | --- | --- | --- | --- | --- | --- | --- | --- |
| O=C1/C(=C/c2ccc([N+](=O)[O-])s2)Oc2ccc(Br)cc21 | 2.31 µM | 6.32 µM | 0.309 µM | 0.964 µM | 0.342 µM | 4.17 µM | 0.278 µM | 1.14 µM | 0.268 µM | 0.805 µM | 0.302 µM | 0.951 µM | 1.43 µM | 2.9 µM | 0.565 µM | 4.84 µM | 0.199 µM | 0.414 µM | 0.207 µM | 0.409 µM |
| O=C1/C(=C/c2ccccc2)CN(C(=O)/C=C/c2ccccc2)C/C1=C\c1ccccc1 |  | 92 µM |  | 22.2 µM |  | 60.5 µM |  | 10.8 µM |  | > 35 µM |  | 21.4 µM |  | 40.9 µM |  | 8.27 µM |  | 38.5 µM |  | 24.7 µM |
| COc1cccc(C2=C(c3cn(C)c4c(C)cccc34)C(=O)NC2=O)c1 | 5.89 µM | > 21.9 µM | > 25 µM | > 25 µM | 0.909 µM | > 25 µM | > 25 µM | > 25 µM | 21.5 µM | > 25 µM | > 25 µM | > 25 µM | > 25 µM | > 25 µM | 15.8 µM | > 25 µM | 16.8 µM | > 25 µM | 16.5 µM | > 25 µM |
| N#C/C(=C\c1ccccn1)c1nc2ccccc2o1 | 30.4 µM | 99.2 µM | 18.4 µM | > 100 µM | 21.8 µM | > 100 µM | 18.5 µM | 52.4 µM | 18 µM | 43 µM | 20.7 µM | 45 µM | 34.4 µM | > 100 µM | 35.3 µM | > 100 µM | 19.2 µM | 46.6 µM | 29.7 µM | > 100 µM |
| O=C1c2ccccc2-n2c1nc1ccc([N+](=O)[O-])cc1c2=O |  | 35.5 µM |  | > 100 µM |  |  |  | 84.4 µM |  | > 100 µM |  | > 100 µM |  | > 100 µM |  | > 100 µM |  | > 100 µM |  | 99.7 µM |
| CCc1n(Cc2ccc3ccccc3c2)cc[n+]1Cc1ccc2ccccc2c1 | 1.13 µM | 4.15 µM | 0.736 µM | 2.32 µM | 0.335 µM | 1.71 µM | 0.376 µM | 1.8 µM | 0.361 µM | 1.28 µM | 0.581 µM | 2.06 µM | 0.965 µM | 4.23 µM | 1.52 µM | 3.04 µM | 2.87 µM | 10 µM | 0.466 µM | 1.74 µM |
| O=c1oc2cc(O)ccc2cc1-c1nc2ccccc2o1 |  | 84.7 µM |  | > 100 µM |  | > 100 µM |  | 75.8 µM |  | 40.8 µM |  | > 100 µM |  | > 100 µM |  | > 100 µM |  | > 100 µM |  | 61.8 µM |
| Cc1nc2sc(C(=O)Nc3cccc4c3OCCO4)c(N)c2cc1C(C)O (configuration not stated) | 2.16 µM | 9.05 µM | 4.84 µM | > 100 µM | 1.81 µM | > 100 µM | 4.16 µM | > 100 µM | 4.82 µM | > 100 µM | > 100 µM | > 100 µM | 8.31 µM | > 100 µM | 5 µM | > 100 µM | 5.54 µM | > 100 µM | 3.6 µM | > 100 µM |
| C=CC(=O)N1CCN(c2nc(OC[C@@H]3CCCN3C)nc3c(F)c(-c4nc(N)cc(C)c4C(F)(F)F)c(Cl)cc23)[C@@H](C)C1 | 5.34 µM | 19.3 µM | 1.7 µM | 3.54 µM | 1.22 µM | 2.74 µM | 2.49 µM | 7.06 µM | 1.74 µM | 3.33 µM | 1.75 µM | 3.21 µM | 2.65 µM | 7.2 µM | 3.6 µM | 15.3 µM | 3.41 µM | 12.6 µM | 1.66 µM | 3.14 µM |
| CN(C)Cc1nsc(N(C)C)n1 |  | > 100 µM |  | > 100 µM |  | > 100 µM |  | > 100 µM |  | > 100 µM |  | > 100 µM |  | > 100 µM |  | > 100 µM |  | > 100 µM |  | > 100 µM |
| Cc1nc2ccccc2c(/C=C/c2ccc(C(F)(F)F)cc2)c1C(=O)/C=C/c1ccccc1 | 1.69 µM | 3.13 µM | 1.12 µM | 3 µM | 1.38 µM | 2.81 µM | 0.999 µM | 4.64 µM | 1.69 µM | 3.05 µM | 1.77 µM | 3.22 µM | 1.6 µM | 3.1 µM | 1.58 µM | 3.07 µM | 1.54 µM | 2.87 µM | 1.2 µM | 2.52 µM |
| CCOC(=O)c1ccc(N[C@@H]2c3cc4c(cc3C(c3cc(OC)c(O)c(OC)c3)[C@H]3C(=O)OCC32)OCO4)cc1 (some centres not stated) | 0.332 µM | 1.92 µM | 0.962 µM | 10 µM | 0.308 µM | 0.909 µM and 4.98 µM |  | 7.08 µM | 0.379 µM | 2.95 µM | 0.935 µM | 8.59 µM |  | > 100 µM | 0.199 µM and 0.492 µM | 0.66 µM and 2.12 µM | 0.161 µM | 0.75 µM and 1.44 µM |  | 6.71 µM |
| CC(=O)OC1C(C)OC(Oc2c(-c3ccc(O)cc3)oc3cc(O)cc(O)c3c2=O)C(O)C1OC(C)=O (configuration not stated) | > 52.4 µM | > 100 µM | 31.7 µM | > 79.8 µM | 27.5 µM | > 93.9 µM | 23.4 µM | 70.4 µM | 17.4 µM | 39.9 µM | 29 µM | > 100 µM | 31.7 µM | > 94.1 µM | 48.2 µM | > 100 µM | 52.3 µM | > 100 µM | 20.6 µM | 45.3 µM |
| CC1=C(C(=O)Nc2cc(F)c(F)cc2F)C(c2ccc(N(C)C)cc2)C(C(=O)Nc2cc(F)c(F)cc2F)=C(C)N1 |  | 80.5 µM |  | > 100 µM |  | 48.1 µM |  | > 68.6 µM |  | > 74.3 µM |  | > 100 µM | 49.4 µM | > 100 µM |  | > 100 µM |  | > 87.9 µM |  | 49.7 µM |
